In ChEMBL document CHEMBL4000206, “An efficient anticoagulant candidate: Characterization, synthesis and in vivo study of a fondaparinux analogue Rrt1.17” (Eur J Med Chem, 2017):
Calls of active or inactive are those of the source. The rule behind the calls is not given here.

Key:
[1] = molecular target: T1, Coagulation factor X (Homo sapiens, UniProt P00742); assay: Inhibition of factor 10a (unknown origin) using S-2765 as substrate preincubated with AT-3 followed by factor 10a addition for 60 secs and subsequent addition of substrate for 60 secs measured after 4 mins
T1 sequence (P00742 41-179 limits assumed): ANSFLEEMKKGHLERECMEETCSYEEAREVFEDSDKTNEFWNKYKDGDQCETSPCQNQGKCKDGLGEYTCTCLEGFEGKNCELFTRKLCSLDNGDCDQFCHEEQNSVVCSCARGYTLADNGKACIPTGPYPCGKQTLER
T1 sequence (P00742 235-488 limits assumed): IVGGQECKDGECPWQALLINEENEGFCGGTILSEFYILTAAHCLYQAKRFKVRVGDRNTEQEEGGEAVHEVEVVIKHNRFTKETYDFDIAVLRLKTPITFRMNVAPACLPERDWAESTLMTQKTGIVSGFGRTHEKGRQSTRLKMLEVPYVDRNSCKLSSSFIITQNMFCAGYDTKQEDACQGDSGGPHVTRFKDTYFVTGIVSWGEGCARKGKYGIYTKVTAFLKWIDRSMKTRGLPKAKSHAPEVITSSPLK

[2] = molecular target: T1, Coagulation factor X; assay: Inhibition of factor 10a (unknown origin) using S-2765 as substrate assessed as compound potency preincubated with AT-3 followed by factor 10a addition for 60 secs and subsequent addition of substrate for 60 secs measured after 4 mins
[3] = system: Rattus norvegicus; assay: Antithrombotic activity in Wistar rat venous thrombosis model assessed as reduction in weight of vein thrombus at 100 to 500 IU/kg, sc administered 1 hr prior to induction of thrombosis measured after 30 mins; format: functional, organism-based
[4] = system: Rattus norvegicus; assay: Antithrombotic activity in Wistar rat venous thrombosis model assessed as reduction in weight of vein thrombus at 300 IU/kg, sc administered 1 hr prior to induction of thrombosis measured after 30 mins; format: functional, organism-based

IC50 [1] [nM] | INH [2] [IU/mg] | Compound | Activity [3] | Activity [4]
3 | 719 | CC.COC1O[C@H](COS(=O)(=O)O)[C@@H](O[C@@H]2O[C@@H](C(=O)O)[C@@H](O[C@@H]3O[C@H](COS(=O)(=O)O)[C@@H](O[C@@H]4O[C@H](C(=O)O)[C@@H](O[C@H]5O[C@H](COS(=O)(=O)O)[C@@H](O)[C@H](O)[C@H]5NS(=O)(=O)O)[C@H](O)[C@H]4O)[C@H](OS(=O)(=O)O)[C@H]3NS(=O)(=O)O)[C@H](O)[C@H]2OS(=O)(=O)O)[C@H](O)[C@H]1NS(=O)(=O)O (single isomer, unassigned) | – | –
494 | 2.15 | CO[C@H]1O[C@H](COS(=O)(=O)O)[C@@H](O[C@@H]2O[C@@H](C(=O)O)[C@@H](O[C@@H]3O[C@H](COS(=O)(=O)O)[C@@H](O[C@@H]4O[C@H](C(=O)O)[C@@H](O[C@H]5O[C@H](COS(=O)(=O)O)[C@@H](O)[C@H](O)[C@H]5NS(=O)(=O)O)[C@H](O)[C@H]4O)[C@H](OS(=O)(=O)O)[C@H]3N)[C@H](O)[C@H]2OS(=O)(=O)O)[C@H](O)[C@H]1NS(=O)(=O)O | – | –
1.14 | 1260 | CO[C@H]1O[C@H](COS(=O)(=O)O)[C@@H](O[C@@H]2O[C@@H](C(=O)O)[C@@H](O[C@@H]3O[C@H](COS(=O)(=O)O)[C@@H](O[C@@H]4O[C@H](C(=O)O)[C@@H](O[C@H]5O[C@H](COS(=O)(=O)O)[C@@H](O)[C@H](O)[C@H]5NC=O)[C@H](O)[C@H]4O)[C@H](OS(=O)(=O)O)[C@H]3NS(=O)(=O)O)[C@H](O)[C@H]2OS(=O)(=O)O)[C@H](O)[C@H]1NS(=O)(=O)O | – | –
0.978 | 1170 | CO[C@H]1O[C@H](COS(=O)(=O)O)[C@@H](O[C@@H]2O[C@@H](C(=O)O)[C@@H](O[C@@H]3O[C@H](COS(=O)(=O)O)[C@@H](O[C@@H]4O[C@H](C(=O)O)[C@@H](O[C@H]5O[C@H](COS(=O)(=O)O)[C@@H](O)[C@H](O)[C@H]5NS(=O)(=O)O)[C@H](O)[C@H]4O)[C@H](OS(=O)(=O)O)[C@H]3NS(=O)(=O)O)[C@H](O)[C@H]2OS(=O)(=O)O)[C@H](O)[C@H]1NS(=O)(=O)O | – | Active

Continued, compound first:

Compound | IC50 [1] [nM] | INH [2] [IU/mg] | Activity [3] | Activity [4]
CO[C@H]1O[C@H](COS(=O)(=O)O)[C@@H](O[C@@H]2O[C@@H](C(=O)O)[C@@H](O[C@@H]3O[C@H](COS(=O)(=O)O)[C@@H](O[C@@H]4O[C@H](C(=O)O)[C@@H](O[C@H]5O[C@H](COS(=O)(=O)O)[C@@H](O)[C@H](O)[C@H]5NS(=O)(=O)O)[C@H](O)[C@H]4O)[C@H](OS(=O)(=O)O)[C@H]3NS(=O)(=O)O)[C@H](OS(=O)(=O)O)[C@H]2OS(=O)(=O)O)[C@H](O)[C@H]1NS(=O)(=O)O | 9.25 | 185 | – | –
CO[C@H]1O[C@H](COS(=O)(=O)O)[C@@H](O[C@@H]2O[C@H]3C(=O)N[C@H]4[C@H](O[C@@H]3[C@H](O)[C@H]2OS(=O)(=O)O)O[C@H](COS(=O)(=O)O)[C@@H](O[C@@H]2O[C@H](C(=O)O)[C@@H](O[C@H]3O[C@H](COS(=O)(=O)O)[C@@H](O)[C@H](O)[C@H]3NS(=O)(=O)O)[C@H](O)[C@H]2O)[C@@H]4OS(=O)(=O)O)[C@H](O)[C@H]1NS(=O)(=O)O | 19.9 | 83.5 | – | –
CO[C@H]1O[C@H](COS(=O)(=O)O)[C@@H](O[C@@H]2O[C@@H](C(=O)O)[C@@H](O[C@@H]3O[C@H](COS(=O)(=O)O)[C@@H](O[C@@H]4O[C@H](C(=O)O)[C@@H](O[C@H]5O[C@H](COS(=O)(=O)O)[C@@H](O)[C@H](O)[C@H]5N)[C@H](O)[C@H]4O)[C@H](OS(=O)(=O)O)[C@H]3N)[C@H](O)[C@H]2OS(=O)(=O)O)[C@H](O)[C@H]1NS(=O)(=O)O | 967 | 1.32 | – | –
CO[C@H]1O[C@H](COS(=O)(=O)O)[C@@H](O[C@@H]2O[C@@H](C(=O)O)[C@@H](O[C@@H]3O[C@H](COS(=O)(=O)O)[C@@H](O[C@@H]4O[C@H](C(=O)O)[C@@H](O[C@H]5O[C@H](COS(=O)(=O)O)[C@@H](O)[C@H](O)[C@H]5NS(=O)(=O)O)[C@H](O)[C@H]4O)[C@H](OS(=O)(=O)O)[C@H]3NS(=O)(=O)O)[C@H](O)[C@H]2OS(=O)(=O)O)[C@H](O)[C@H]1N(C)S(=O)(=O)O | 1.65 | 1140 | Active | –
CC.O=C(O)[C@H]1O[C@@H](O[C@H]2[C@H](OS(=O)(=O)O)[C@@H](NS(=O)(=O)O)[C@H](O[C@H]3[C@H](O)[C@@H](OS(=O)(=O)O)[C@H](O[C@@H]4[C@H](O)[C@@H](CO)O[C@@H]4CS(=O)(=O)O)O[C@H]3C(=O)O)O[C@@H]2COS(=O)(=O)O)[C@H](O)[C@@H](O)[C@@H]1O[C@H]1O[C@H](COS(=O)(=O)O)[C@@H](O)[C@H](O)[C@H]1NS(=O)(=O)O | 20.7 | – | – | –
